Results reported in patent US10273241B2 (President and Fellows of Harvard College, priority 2013, dated 2019).
Read-outs that look alike come from different tables or passages of the source.

How the values were obtained:
MV4;11 = assay: Cell growth assay, MV4;11 AML cell line; assay type: cell-based, human
Description: (§1) For all other cell lines, compounds were serially diluted in medium and dispensed in triplicate in 96-well plates (0.1% DMSO final for assay) followed by the addition of exponentially growing cells at densities ranging from 5,000 to 30,000 cells/well. Cells were also seeded into 2 additional control wells containing vehicle (0.1% DMSO). […] To determine the estimated cell number in each well, cells that were counted in the control well were diluted 3-fold for an 8-point dilution series, and transferred to 384-well plates in duplicate, 20 μL per well. Cells in all other wells were diluted 4-fold and transferred to 384-well plates in duplicate, 20 μL per well. 20 μL of CellTiter-Glo (Promega) was subsequently added to all wells and luminescence was detected using a SPECTRAmax M3. The control well dilution series was fit to a linear regression and used as a standard for calculating the estimated cell number for each well. For days 7 and 10, total estimated cell number represents the split-adjusted theoretical cell number.

MOLM-14 = assay: Cell growth assay, MOLM-14 AML cell line; assay type: cell-based, human
Description: as §1

[1] = Homo sapiens, MV4-11, 240 h, day 10, cells passaged, fresh compound added on days 3 and 7, read-out: MV 4;11 GI50 day 10
[2] = Homo sapiens, MOLM-14, 240 h, day 10, cells passaged, fresh compound added on days 3 and 7, read-out: MOL M14 G150 day 10
[3] = Homo sapiens, MV4-11, 168 h, day 7, printed as symbol, read-out: MV4;11 GI50 day 7
[4] = Homo sapiens, MOLM-14, 168 h, day 7, printed as symbol, read-out: MOL M14 GI50 day 7
[5] = day 10, cells passaged, fresh compound added on days 3 and 7, read-out: MV 4;11 GI50 day 10
[6] = day 10, cells passaged, fresh compound added on days 3 and 7, read-out: MOL M14 G150 day 10

Row | GI50 (MV4;11; [1]) | GI50 (MOLM-14; [2]) | SMILES | also measured
1 | 7.5 nM | 20 nM | CN(CC1(C)COC1)[C@H]1CCC2=CC3=CC[C@]4(C)[C@@H](c5ccc6ccncc6c5)CC[C@H]4[C@@]34CCC2(C1)O4 [42B, β-N-methyl-1-(3-methyl-3-oxetanyl)methanamine] | 
2 | 9.5 nM | 30 nM | CC1(O)CN([C@@H]2CCC3=CC4=CC[C@]5(C)[C@@H](c6ccc7ccncc7c6)CC[C@H]5C45CC[C@]3(C2)O5)C1 [69A, α-hydroxymethylazetidine] | 
3 |  |  | CN(C)[C@H]1CCC2=CC3=CC[C@]4(C)[C@@H](NCc5cccnc5)CC[C@H]4C34CC[C@]2(C1)O4 [46B, β-dimethylamine aminomethylpyridine] | GI50 (MV4;11; [3]): > 1000 nM; GI50 (MOLM-14; [4]): > 1000 nM
4 |  |  | CN(C)[C@H]1CCC2=CC3=CC[C@]4(C)C(c5ccc6cn[nH]c6c5)=CC[C@H]4C34CC[C@]2(C1)O4 [58B, β-dimethylamine 17,18-unsaturated 6-indazole] | GI50 (MV4;11; [3]): > 1000 nM; GI50 (MOLM-14; [4]): > 1000 nM
5 | 7 nM | 10 nM | COCCN(C)[C@H]1CCC2=CC3=CC[C@]4(C)C(c5ccc6ccncc6c5)CC[C@H]4[C@@]34CC[C@]2(C1)O4 (stereo partly drawn) [27B, β-2-methoxyethylmethylamine] | 
6 | 9.5 nM | 15 nM | COCCN(CCOC)[C@H]1CCC2=CC3=CC[C@]4(C)C(c5ccc6ccncc6c5)CC[C@H]4[C@@]34CC[C@]2(C1)O4 (stereo partly drawn) [28B, β-bis-2-methoxyethylamine] | 
7 | 175 nM | 200 nM | CC(C)(C)N[C@@H]1CCC2=CC3=CC[C@]4(C)C(c5ccc6ccncc6c5)CC[C@H]4C34CC[C@]2(C1)O4 (stereo partly drawn) [43A, α-t-butylamine] | 
8 | 20 nM | 50 nM | CN[C@H]1CCC2=CC3=CC[C@]4(C)C(c5ccc6ccncc6c5)CC[C@H]4C34CC[C@]2(C1)O4 (stereo partly drawn) [24B, β-monomethylamine] | 
9 | 8 nM | 16 nM | CC1(N[C@H]2CCC3=CC4=CC[C@]5(C)C(c6ccc7ccncc7c6)CC[C@H]5C45CC[C@]3(C2)O5)COC1 (stereo partly drawn) [41B, β-3-methyl-3-oxetanamine] | 
10 | 65 nM | 200 nM | C[C@]12CC=C3C=C4CC[C@H](N5CCC(F)(F)C5)C[C@]45CC[C@]3(O5)[C@@H]1CC[C@@H]2c1ccc2ccncc2c1 [37B, β-3,3-difluoropyrrolidine] | 
11 |  |  | CN(C)[C@H]1CCC2=CC3=CC[C@]4(C)C(C(=O)Nc5cccnc5)=CC[C@H]4[C@@]34CCC2(C1)O4 [49B, β-dimethylamine 17,18-unsaturated amidepyridine] | GI50 (MV4;11; [3]): > 1000 nM; GI50 (MOLM-14; [4]): > 1000 nM
12 |  |  | CN(C)[C@H]1CCC2=CC3=CC[C@]4(C)[C@@H](C(=O)Nc5cccnc5)CC[C@H]4[C@@]34CCC2(C1)O4 [50B, β-dimethylamine amidepyridine] | GI50 (MV4;11; [3]): > 1000 nM; GI50 (MOLM-14; [4]): > 1000 nM
13 | 7 nM | 14 nM | CN(CCF)[C@H]1CCC2=CC3=CC[C@]4(C)C(c5ccc6ccncc6c5)CC[C@H]4[C@@]34CC[C@]2(C1)O4 (stereo partly drawn) [29B, β-2-fluoroethylmethylamine] | 
14 | 1.75 nM | 14 nM | C[C@]12CC=C3C=C4CC[C@@H]([N+](C)(C)[O-])CC45CC[C@]3(O5)[C@@H]1CC[C@@H]2c1ccc2ccncc2c1 [14ANO, 14A-N-Oxide] | 
15 | 16 nM | 25 nM | CN(C1CC1)[C@H]1CCC2=CC3=CC[C@]4(C)C(c5ccc6ccncc6c5)CC[C@H]4C34CC[C@]2(C1)O4 (stereo partly drawn) [40B, β-Cyclopropylmethylamine] | 
16 |  |  | CNC(=O)O[C@@H]1CCC2=CC3=CC[C@]4(C)[C@@H](c5ccc6ccncc6c5)CC[C@H]4[C@@]34CCC2(C1)O4 [68A, α-monomethylcarbamate] | GI50 (MV4;11; [5]): 120 nM; GI50 (MOLM-14; [6]): 150 nM
17 | 2 nM | 20 nM | C[C@]12CC=C3C=C4CC[C@@H](NCCS(N)(=O)=O)C[C@]45CCC3(O5)[C@@H]1CC[C@@H]2c1ccc2ccncc2c1 [71A] | 
18 | 20 nM | 70 nM | C[C@]12CC=C3C=C4CC[C@H](N)CC45CC[C@]3(O5)[C@@H]1CC[C@@H]2c1ccc2ccncc2c1 [62B, β-primaryamine] | 
19 | 1 nM | 3 nM | C[C@]12CC=C3C=C4CC[C@@H](N5CCC5)CC45CC[C@]3(O5)[C@@H]1CC[C@@H]2c1ccc2ccncc2c1 [18A, α-azetidine] | 

Row | GI50 (MV4;11; [1]) | GI50 (MOLM-14; [2]) | SMILES | also measured
20 | 10 nM | 10 nM | C[C@]12CC=C3C=C4CC[C@H](N5CCC6(COC6)C5)C[C@]45CCC3(O5)[C@@H]1CCC2c1ccc2ccncc2c1 (stereo partly drawn) [38B, β-2-oxa-6-azaspiro[3.4]octane] | 
21 |  |  | CO[C@@H]1CCC2=CC3=CC[C@]4(C)[C@@H](c5ccc6ccncc6c5)CC[C@H]4[C@@]34CCC2(C1)O4 [64A, α-methylether] | GI50 (MV4;11; [5]): 15 nM; GI50 (MOLM-14; [6]): 45 nM
22 |  |  | C[C@]12CC=C3C=C4CC[C@@H](O)CC45CC[C@]3(O5)[C@@H]1CC[C@@H]2c1ccc2ccncc2c1 [17A, α-alcohol] | GI50 (MV4;11; [5]): 1 nM; GI50 (MOLM-14; [6]): 6 nM
23 | 27 nM | 55 nM | CC(C)N[C@H]1CCC2=CC3=CC[C@]4(C)[C@@H](c5ccc6ccncc6c5)CC[C@H]4[C@@]34CC[C@]2(C1)O4 [32B, β-isopropylamine] | 
24 | 80 nM | 160 nM | C[C@]12CC=C3C=C4CC[C@H](N5CC[C@@H](F)C5)C[C@]45CC[C@]3(O5)[C@@H]1CC[C@@H]2c1ccc2ccncc2c1 [35B, β-(R)-3-fluoropyrrolidine] | 
25 |  |  | CCN(C(C)C)[C@H]1CCC2=CC3=CC[C@]4(C)[C@@H](c5ccc6ccncc6c5)CC[C@H]4[C@@]34CC[C@]2(C1)O4 [34B] | GI50 (MV4;11; Homo sapiens, MV4-11, 240 h, read-out: MV 4;11 GI50 day 10 (nM)): 8.5 nM; IC50 (MOLM-14; Homo sapiens, MOLM-14, 240 h, read-out: MOL M14 G150 day 10 (nM)): 15 nM
26 |  |  | CN(C)[C@H]1CCC2=CC3=CC[C@]4(C)C(c5ccc6[nH]ncc6c5)=CC[C@H]4C34CC[C@]2(C1)O4 [61B, β-dimethylamine 17,18-unsaturated 5-indazole] | GI50 (MV4;11; [3]): > 1000 nM; GI50 (MOLM-14; [4]): > 1000 nM
27 | 8 nM | 10 nM | C[C@]12CC=C3C=C4CC[C@H](N5CCCC5)C[C@]45CC[C@]3(O5)[C@@H]1CC[C@@H]2c1ccc2ccncc2c1 [19B, β-pyrrolidine] | GI50 (MV4;11; Homo sapiens, MV4-11, day 7, fresh compound added on day 3, read-out: MV4;11 GI50 day 7): 15 nM; GI50 (MOLM-14; Homo sapiens, MOLM-14, day 7, fresh compound added on day 3, read-out: MOL M14 GI50 day 7): 16 nM
28 | 4 nM | 6 nM | [2H]C([2H])([2H])N([C@H]1CCC2=CC3=CC[C@]4(C)C(c5ccc6ccncc6c5)CC[C@H]4[C@@]34CC[C@]2(C1)O4)C([2H])([2H])[2H] (stereo partly drawn) [26B, β-deuterodimethylamine] | 
29 | 19 nM | 95 nM | C[C@]12CC=C3C=C4CC[C@H](N5CC[C@H](F)C5)C[C@]45CC[C@]3(O5)[C@@H]1CC[C@@H]2c1ccc2ccncc2c1 [36B, β-(S)-3-fluoropyrrolidine] | 
30 | 95 nM | 150 nM | CC(C)(C)N[C@H]1CCC2=CC3=CC[C@]4(C)C(c5ccc6ccncc6c5)CC[C@H]4C34CC[C@]2(C1)O4 (stereo partly drawn) [43B, β-t-butylamine] | 
31 | 18 nM | 50 nM | C[C@]12CC=C3C=C4CC[C@H](NCCS(N)(=O)=O)C[C@]45CCC3(O5)[C@@H]1CC[C@@H]2c1ccc2ccncc2c1 [71B] | 
32 | 22 nM | 60 nM | CC(C)N(C)[C@H]1CCC2=CC3=CC[C@]4(C)[C@@H](c5ccc6ccncc6c5)CC[C@H]4[C@@]34CC[C@]2(C1)O4 [33B, β-isopropylmethylamine] | 
33 | 3 nM | 16 nM | C[C@]12CC=C3C=C4CC[C@H](N5C[C@H](O)C[C@H]5C(=O)O)C[C@]45CCC3(O5)[C@@H]1CCC2c1ccc2ccncc2c1 (some centres unmarked) [65B] | 
34 |  |  | CN(C)[C@H]1CCC2=CC3=CC[C@]4(C)C(c5ccc6cnncc6c5)=CC[C@H]4C34CC[C@]2(C1)O4 [55B, β-dimethylamine 17,18-unsaturated phthalazine] | GI50 (MV4;11; [3]): > 1000 nM; GI50 (MOLM-14; [4]): > 1000 nM
35 | 7 nM | 12 nM | C[C@]12CC=C3C=C4CC[C@@H](N5CC(O)C5)C[C@]45CCC3(O5)[C@@H]1CC[C@@H]2c1ccc2ccncc2c1 [70A, α-hydroxyazetidine] | 
36 | 17 nM | 30 nM | C[C@]12CC=C3C=C4CC[C@H](NC5CC5)C[C@]45CCC3(O5)[C@@H]1CCC2c1ccc2ccncc2c1 (stereo partly drawn) [39B, β-cyclopropylamine] | 
37 | 8 nM | 4 nM | C[C@]12CC=C3C=C4CC[C@@H](NCC5(O)COC5)CC45CC[C@]3(O5)[C@@H]1CC[C@@H]2c1ccc2ccncc2c1 [72A, α-hydroxyaminomethyloxetane] | 
38 | 20 nM | 55 nM | CN(CC(F)F)[C@H]1CCC2=CC3=CC[C@]4(C)C(c5ccc6ccncc6c5)CC[C@H]4[C@@]34CC[C@]2(C1)O4 (stereo partly drawn) [30B, β-2,2-difluoroethylmethylamine] | 

Row | SMILES | GI50 (MV4;11; [1]) | GI50 (MOLM-14; [2]) | also measured
39 | C[C@]12CC=C3C=C4CC[C@H](N5[C@H]6CC[C@@H]5CC6)C[C@]45CC[C@]3(O5)[C@@H]1CC[C@@H]2c1ccc2ccncc2c1 [31B, β-7-Azabicyclo[2.2.1]heptane] | 75 nM | 100 nM | 
